Consider 29 molecules from patent US10208059B2, “Heterocyclic modulators of HIF activity for treatment of disease” (Board of Regents, University of Texas System, priority 2012, dated 2019).

The assay has as its system 293T-HRE-GFP-luc cells. The assay can be described thus: Cell-based reporter assay for IC50 determinations. The following applies: hypoxia 6 hrs (1% O2), luminescence, read-out: IC50 Classification. The method, boiled down:
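Cells carrying an HRE-driven GFP-luciferase reporter, seeded at 12,000/well and held overnight, then given 1:3 serial compound dilutions (DMSO, further diluted 1:50 in medium). After 30 min in normoxia, plates held 6 h in hypoxia (1% O2, 37 °C); luciferase luminescence read, IC50 by four-parameter logistic fit.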

Consider `Cc1nc(-c2nc(-c3ccc(OC(F)(F)F)cc3)no2)nn1Cc1cccc(C#N)c1` [Example 107, 3-((5-methyl-3-(3-(4-(trifluoromethoxy)phenyl)-1,2,4-oxadiazol-5-yl)-1H-1,2,4-triazol-1-yl)methyl)benzonitrile], for which the IC50 was 100 to 1000 nM. The same measure for `Cc1cccc(Cn2nc(-c3nc(-c4ccc(OC(F)(F)F)cc4)no3)nc2C)n1` [Example 108, 5-(5-methyl-1-((6-methylpyridin-2-yl)methyl)-1H-1,2,4-triazol-3-yl)-3-(4-(trifluoromethoxy)phenyl)-1,2,4-oxadiazole]: 1000 to 10000 nM. Take `Cc1nc(-c2nc(-c3ccc(OC(F)(F)F)cc3)no2)nn1Cc1ccc(C(C)C)cc1` [Example 109, 5-(1-(4-isopropylbenzyl)-5-methyl-1H-1,2,4-triazol-3-yl)-3-(4-(trifluoromethoxy)phenyl)-1,2,4-oxadiazole]: the IC50 lay within 100 to 1000 nM. Take `Cc1nc(-c2nc(-c3ccc(OC(F)(F)F)cc3)no2)nn1Cc1cccc2c1cnn2C` [Example 110, 5-(5-methyl-1-((1-methyl-1H-indazol-4-yl)methyl)-1H-1,2,4-triazol-3-yl)-3-(4-(trifluoromethoxy)phenyl)-1,2,4-oxadiazole]: the half-inhibitory concentration (IC50) lay in the range of 100 to 1000 nM. As for `Cc1nc(-c2nc(-c3ccc(OC(F)(F)F)cc3)no2)nn1Cc1ccc2c(c1)OCO2` [Example 111, 5-(1-(benzo[d][1,3]dioxol-5-ylmethyl)-5-methyl-1H-1,2,4-triazol-3-yl)-3-(4-(trifluoromethoxy)phenyl)-1,2,4-oxadiazole], the figure is 100 to 1000 nM; as for `COc1ccc(Cn2nc(-c3nc(-c4ccc(OC(F)(F)F)cc4)no3)nc2C)cc1C(F)(F)F` [Example 112, 5-(1-(4-methoxy-3-(trifluoromethyl)benzyl)-5-methyl-1H-1,2,4-triazol-3-yl)-3-(4-(trifluoromethoxy)phenyl)-1,2,4-oxadiazole], 1000 to 10000 nM. With `Cc1nc(-c2nc(-c3ccc(OC(F)(F)F)cc3)no2)nn1Cc1ccc2ccccc2n1` [Example 113, 5-(5-methyl-1-(quinolin-2-ylmethyl)-1H-1,2,4-triazol-3-yl)-3-(4-(trifluoromethoxy)phenyl)-1,2,4-oxadiazole], the IC50 is below 100 nM.

Take `Cc1nc(-c2nc(-c3ccc(OC(F)(F)F)cc3)no2)nn1Cc1ccc2c(c1)nnn2C` [Example 114, 5-(5-methyl-1-((1-methyl-1H-benzo[d][1,2,3]triazol-5-yl)methyl)-1H-1,2,4-triazol-3-yl)-3-(4-(trifluoromethoxy)phenyl)-1,2,4-oxadiazole]: the 50% inhibitory concentration (IC50) was in the range of 100 to 1000 nM. With `COc1nccc(Cn2nc(-c3nc(-c4ccc(OC(F)(F)F)cc4)no3)nc2C)n1` [Example 115, 5-(1-((2-methoxypyrimidin-4-yl)methyl)-5-methyl-1H-1,2,4-triazol-3-yl)-3-(4-(trifluoromethoxy)phenyl)-1,2,4-oxadizole], the IC50 fell in the range of 1000 to 10000 nM. For the molecule `Cc1nc(-c2noc(-c3ccc(C(C)(C)C)cc3)n2)nn1Cc1cccc(N2CCN(C)CC2)c1` [Example 116, 5-(4-(tert-butyl)phenyl)-3-(5-methyl-1-(3-(4-methylpiperazin-1-yl)benzyl)-1H-1,2,4-triazol-3-yl)-1,2,4-oxadiazole], the IC50 was below 100 nM.

Turning to `COCCCNc1nccc(Cn2nc(-c3nc(-c4ccc(OC(F)(F)F)cc4)no3)nc2C)n1` [Example 117, N-(3-methoxypropyl)-4-((5-methyl-3-(3-(4-(trifluoromethoxy)phenyl)-1,2,4-oxadiazol-5-yl)-1H-1,2,4-triazol-1-yl)methyl)pyrimidin-2-amine], the IC50 was in the range of 100 to 1000 nM. Take `Cc1nc(-c2nc(-c3ccc(OC(F)(F)F)cc3)no2)nn1Cc1cccc(C(N)=O)c1` [Example 118, 3-((5-methyl-3-(3-(4-(trifluoromethoxy)phenyl)-1,2,4-oxadiazol-5-yl)-1H-1,2,4-triazol-1-yl)methyl)benzamide]: the IC50 is below 100 nM. Regarding `Cc1nc(-c2nc(-c3ccc(OC(F)(F)F)cc3)no2)nn1Cc1cccc(C(=O)O)c1` [Example 119, 3-((5-methyl-3-(3-(4-(trifluoromethoxy)phenyl)-1,2,4-oxadiazol-5-yl)-1H-1,2,4-triazol-1-yl)methyl)benzoic acid], the IC50 lay within 100 to 1000 nM. The same measure for `CNC(=O)c1cccc(Cn2nc(-c3nc(-c4ccc(OC(F)(F)F)cc4)no3)nc2C)c1` [Example 120, N-methyl-3-[(5-methyl-3-{3-[4-(trifluoromethoxy)phenyl]-1,2,4-oxadiazol-5-yl}-1H-1 2 4-triazol-1-yl)methyl]benzamide]: below 100 nM; for `Cc1nc(-c2nc(-c3ccc(OC(F)(F)F)cc3)no2)nn1Cc1ccnc(N2CCCC2)n1` [Example 121, 4-[(5-methyl-3-{3-[4-(trifluoromethoxy)phenyl]-1,2,4-oxadiazol-5-yl}-1H-1,2,4-triazol-1-yl)methyl]-2-(pyrrolidin-1-yl)pyrimidine]: 100 to 1000 nM; for `Cc1nc(-c2nc(-c3ccc(OC(F)(F)F)cc3)no2)nn1Cc1cccc(C(=O)NC(C)C)c1` [Example 122, 3-[(5-methyl-3-{3-[4-(trifluoromethoxy)phenyl]-1,2,4-oxadiazol-5-yl}-1H-1,2,4-triazol-1-yl)methyl]-N-(propan-2-yl)benzamide]: below 100 nM. As for `Cc1nc(-c2nc(-c3ccc(OC(F)(F)F)cc3)no2)nn1Cc1cccc(C(=O)N2CC(O)C2)c1` [Example 123, 1-{3-[(5-methyl-3-{3-[4-(trifluoromethoxy)phenyl]-1,2,4-oxadiazol-5-yl}-1H-1,2,4-triazol-1-yl)methyl]benzoyl}azetidin-3-ol], the figure is below 100 nM; as for `Cc1nc(-c2nc(-c3ccc(OC(F)(F)F)cc3)no2)nn1Cc1cccc(C(=O)NC2CC2)c1` [Example 124, N-cyclopropyl-3-[(5-methyl-3-{3-[4-(trifluoromethoxy]phenyl]-1,2,4-oxadiazol-5-yl}-1H-1,2,4-triazol-1-yl)methyl]benzamide], below 100 nM; as for `Cc1nc(-c2nc(-c3ccc(OC(F)(F)F)cc3)no2)nn1Cc1cccc(C(=O)NC(C)(C)CO)c1` [Example 125, N-(1-hydroxy-2-methylpropan-2-yl)-3-[(5-methyl-3-{3-[4-(trifluoromethoxy)phenyl]-1,2,4-oxadiazol-5-yl}-1H-1,2,4-triazol-1-yl)methyl]benzamide], below 100 nM.

On to `Cc1nc(-c2nc(-c3ccc(OC(F)(F)F)cc3)no2)nn1Cc1cccc(OCCC(C)(C)O)c1` [Example 126, 2-methyl-4-{3-[(5-methyl-3-{3-[4-(trifluoromethoxy)phenyl]-1,2,4-oxadiazol-5-yl}-1H-1,2,4-triazol-1-yl)methyl]phenoxy}butan-2-ol], for which the half-inhibitory concentration (IC50) is below 100 nM. As to `Cc1nc(-c2nc(-c3ccc(OC(F)(F)F)cc3)no2)nn1Cc1ccc(S(C)(=O)=O)cc1` [Example 127, 5-{1-[(4-methanesulfonylphenyl)methyl]-5-methyl-1H-1,2,4-triazol-3-yl}-3-[4-(trifluoromethoxy)phenyl]-1,2,4-oxadiazole], the half-inhibitory concentration (IC50) was in the range of 100 to 1000 nM. The same measure for `Cc1nc(-c2nc(-c3ccc(OC(F)(F)F)cc3)no2)nn1Cc1ccc(=O)n(CCN(C)C)c1` [Example 128, 1-[2-(dimethylamino)ethyl]-5-[(5-methyl-3-{3-[4-(trifluoromethoxy)phenyl]-1,2,4-oxadiazol-5-yl}-1H-1,2,4-triazol-1-yl)methyl]-1,2-dihydropyridin-2-one]: 100 to 1000 nM; for `COCCCOc1ccc(Cn2nc(-c3nc(-c4ccc(OC(F)(F)F)cc4)no3)nc2C)cn1` [Example 129, 2-(3-methoxypropoxy)-5-[(5-methyl-3-{3-[4-(trifluoromethoxy)phenyl]-1,2,4-oxadiazol-5-yl}-1H-1,2,4-triazol-1-yl)methyl]pyridine]: 100 to 1000 nM. For the molecule `Cc1nc(-c2nc(-c3ccc(OC(F)(F)F)cc3)no2)nn1Cc1cccc(S(=O)(=O)NC2CC2)c1` [Example 130, N-cyclopropyl-3-[(5-methyl-3-{3-[4-(trifluoromethoxy)phenyl]-1,2,4-oxadiazol-5-yl}-1H-1,2,4-triazol-1-yl)methyl]benzene-1-sulfonamide], the IC50 is below 100 nM.

`Cc1nc(-c2nc(-c3ccc(OC(F)(F)F)cc3)no2)nn1Cc1cccc(S(=O)(=O)NCCO)c1` [Example 131, 2-hydroxy-S-(3-[(5-methyl-3-{3-[4-(trifluoromethoxy)phenyl]-1,2,4-oxadiazol-5-yl}-1H-1,2,4-triazol-1-yl)methyl]phenyl}ethane-1-sulfonamido]: the half-inhibitory concentration (IC50) is below 100 nM. As for `COC(=O)[C@@H](NS(=O)(=O)c1cccc(Cn2nc(-c3nc(-c4ccc(OC(F)(F)F)cc4)no3)nc2C)c1)C(C)C` [Example 132, methyl (2S)-3-methyl-2-{3-[(5-methyl-3-{3-[4-(trifluoromethoxy)phenyl]-1,2,4-oxadiazol-5-yl}-1H-1,2,4-triazol-1-yl)methyl]benzenesulfonamido}butanoate], the figure is 100 to 1000 nM. As for `Cc1nc(-c2nc(-c3ccc(OC(F)(F)F)cc3)no2)nn1Cc1cccc(S(=O)(=O)N2CCCC2)c1` [Example 133, 5-(5-methyl-1-{[3-(pyrrolidine-1-sulfonyl)phenyl]methyl}-1H-1,2,4-triazol-3-yl)-3-[4-(trifluoromethoxy)phenyl]-1,2,4-oxadiazole], the figure is below 100 nM.

For the molecule `COC(=O)CNS(=O)(=O)c1cccc(Cn2nc(-c3nc(-c4ccc(OC(F)(F)F)cc4)no3)nc2C)c1` [Example 134, methyl 2-{3-[(5-methyl-3-{3-[4-(trifluoromethoxy)phenyl]-1,2,4-oxadiazol-5-yl}-1H-1,2,4-triazol-1-yl)methyl]benzenesulfonamido}acetate], the IC50 is below 100 nM. Regarding `COc1cc(Cn2nc(-c3nc(-c4ccc(OC(F)(F)F)cc4)no3)nc2C)ccn1` [Example 135, 2-methoxy-4-[(5-methyl-3-{3-[4-(trifluoromethoxy)phenyl]-1,2,4-oxadiazol-5-yl}-1H-1,2,4-triazol-1-yl)methyl]pyridine], the IC50 was 100 to 1000 nM.
